Data reported in PMC3393087 (Journal of the American Chemical Society, 2010).
Values after ≈ are worked out from the molar mass of the structure shown. Like-named read-outs stand apart in the source and are kept apart here.

Assays:
[1] = test system: A. baumannii strain JC7/04 pAT-RA; experiment: microbe, parasite or virus in culture; type: cell-based, Acinetobacter baumannii
[2] = test system: A. baumannii strain JC7/04 pAT-RA/OXA-24 (WT); experiment: microbe, parasite or virus in culture; type: cell-based, Acinetobacter baumannii
[3] = test system: A. baumannii strain JC7/04 pAT-RA/OXA-24 (Y112A,M223A); experiment: microbe, parasite or virus in culture; type: cell-based; conditions: Acinetobacter baumannii
[4] = target: OXA-24 Tyr112Ala Met 223Ala (Acinetobacter baumannii, UniProt Q8RLA6, M223A/Y112A); conditions: substrate hydrolysis by OXA-24 Tyr112Ala Met223Ala
OXA-24 Tyr112Ala = OXA-24 Tyr112Ala (Acinetobacter baumannii, UniProt Q8RLA6, Y112A); conditions: substrate hydrolysis by OXA-24 Tyr112Ala
[5] = pAT-RA without blaOXA-24, tazobactam, 1-5 tested at 16 μg/ml, 50 μg/mL rifampin
[6] = pAT-RA/OXA-24 (WT), tazobactam, 1-5 tested at 4 μg/ml, 50 μg/mL rifampin
[7] = pAT-RA/OXA-24 (WT), tazobactam, 1-5 tested at 16 μg/ml, 50 μg/mL rifampin

Structure (SMILES)	MIC [1, 5] [µg/mL]	MIC ([2]; Acinetobacter baumannii) [µg/mL]	MIC [2, 6] [µg/mL]	MIC [2, 7] [µg/mL]	MIC [3] [µg/mL]	MIC ([1]; pAT-RA without blaOXA-24, tazobactam, 1-5 tested at 4 μg/ml, 50 μg/mL rifampin) [µg/mL]	Km [4] [µM]	Km (OXA-24 Tyr112Ala) [µM]	MIC ([1]; Acinetobacter baumannii, JC7/04PATRA, read-out: MIC of inhibitor alone) [µg/mL]	reduction in MICs of meropenem or imipenem ([2]; inhibitor at 4 μg/ml combined with meropenem or imipenem, blaOXA-24 expressed)
C[C@@H](O)[C@H]1C(=O)N2C(C(=O)O)=C(SCCN=CN)C[C@H]12 [Imipenem, imipenem]	1	32 (≈ 107 µM)	32	32	4 (≈ 13.4 µM)	–	–	–	–	–
C[C@@H](O)[C@H]1C(=O)N2C(C(=O)O)=C(S[C@@H]3CN[C@H](C(=O)N(C)C)C3)[C@H](C)[C@H]12 [Meropenem, meropenem]	1	32 (≈ 83.4 µM)	32	32	2 (≈ 5.22 µM)	1	–	–	–	–
O=C(Cc1cccs1)N[C@@H]1C(=O)N2C(C(=O)O)=C(/C=C/c3ccc([N+](=O)[O-])cc3[N+](=O)[O-])CS[C@H]12 [NCF, nitrocefin]	–	–	–	–	–	–	143	238	–	–
C[C@]1(Cn2ccnn2)[C@H](C(=O)O)N2C(=O)C[C@H]2S1(=O)=O [tazobactam]	–	–	–	–	–	–	–	–	> 64	did not detect a reduction in MICs
